Data: patent EP1056778B1, “G PROTEIN-COUPLED RECEPTOR ANTAGONISTS” (priority 1998, dated 1999)
Like-named read-outs stand apart in the source and are kept apart here. Values belong to the compound of their own block, whether it stands above or below them. Where a SMILES comes first, the peptide text is derived from it. Where no end group is shown, it is not given here. K(Rhod) = not defined here

What was measured:
[1] = molecular target: T1, CCKAR (Rattus norvegicus, UniProt P30551); assay: Inhibition of binding of fluorescent agonist RG-CCK-8, quantitative confocal laser scanning microscopy
T1 construct: expressed in transfected cells; host or cells: CHO cells
T1 sequence (P30551 1-444): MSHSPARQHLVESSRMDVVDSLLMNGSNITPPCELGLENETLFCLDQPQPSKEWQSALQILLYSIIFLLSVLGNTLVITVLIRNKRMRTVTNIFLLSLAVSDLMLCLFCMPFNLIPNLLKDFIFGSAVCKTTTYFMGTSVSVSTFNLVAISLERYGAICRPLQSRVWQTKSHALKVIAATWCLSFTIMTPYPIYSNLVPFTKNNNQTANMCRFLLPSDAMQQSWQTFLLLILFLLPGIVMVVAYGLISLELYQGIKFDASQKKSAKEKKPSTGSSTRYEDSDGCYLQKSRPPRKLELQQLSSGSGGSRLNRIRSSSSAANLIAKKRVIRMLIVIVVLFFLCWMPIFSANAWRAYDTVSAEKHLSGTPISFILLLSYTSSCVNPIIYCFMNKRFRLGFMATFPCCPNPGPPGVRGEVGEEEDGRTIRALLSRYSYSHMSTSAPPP

[2] = system: HIV-1RF; assay: Anti-HIV-1 cytoprotection assay, CEM-SS cells infected with HIV-1 strain RF; type: cell-based
[3] = molecular target: CXCR4 (Homo sapiens, UniProt P61073); assay: Inhibition of SDF-1α-induced intracellular calcium release (Fura-2/AM, HeLa and U87 cells expressing CXCR4); type: cell-based; conditions: for Concentration, required for complete inhibition of [Ca ^2+ i] release: Table 1; for Concentration, required for complete inhibition of [Ca^2+ I] release: Table 3, peptides from second transmembrane domain of CXCR4
Experimental: The effect of the peptides on CXCR4-mediated calcium fluxes in HeLa cells that naturally express the CXCR4 receptor and U87 cells stably expressing the CXCR4 receptor was tested as follows. Cells grown on Nunc cover glass chamber slides were incubated with 1 micromolar Fura-2/AM for 20 min in a CO2-incubator, rinsed with PBS and mounted on the stage of a Zeiss Axiovert inverted microscope. [Ca^2+]i measurements were performed using an Attofluor digital imaging system (Atto Instruments, Rockville, MD). Fluorescence of Fura was excited at alternating wavelength of 340 and 380 nm. Fluorescence was monitored by an intensified CCD camera using a 505 cut-off filter. Calibrations of [Ca^2+]i signals were performed using Ca^2+ standards containing 1 micromolar Fura. CXCR4 antagonists were tested on HeLa cells and U87 cells. Stromal cell-derived factor-1α (SDF-1α) was used as a specific CXCR4 agonist.
CCR5 antagonists, which were used in selectivity studies as described below, were tested on HEK (human kidney […]) cells stably expressing the CCR5 receptor and RANTES was used as an agonist. The antagonist activity of the peptides was evaluated by measuring the inhibition of agonist-evoked intracellular Ca^2+i release. These measurements were carried out in Fura-2/AM-treated cells, utilizing an Attofluor digital imaging system as described above. The agonist was SDF-1α.
Further optimization and structure-activity studies allowed to obtain antagonists derived from all but the third and fifth transmembrane domains (Table 2). Table 1. Activity of synthetic peptides corresponding to predicted transmembrane domains of CXCR4 in inhibition of SDF-1α-induced intracellular calcium release.
Table 2. Biological activity of CXCR4 antagonists derived from different transmembrane domains. Anti signaling activity was determined in inhibition of SDF-1α-induced intracellular calcium release. Anti-HIV-1 activity was assessed in cytoprotection assay utilizing CEM-SS cells infected with HIV-1RF.

[4] = cytoprotection assay, CEM-SS cells infected with HIV-1RF, read-out: EC50 in anti-HIV-1 assay
[5] = SDF-1α-induced intracellular calcium release

CXCR4, sequence (P61073 whole entry, the tested form may be a part): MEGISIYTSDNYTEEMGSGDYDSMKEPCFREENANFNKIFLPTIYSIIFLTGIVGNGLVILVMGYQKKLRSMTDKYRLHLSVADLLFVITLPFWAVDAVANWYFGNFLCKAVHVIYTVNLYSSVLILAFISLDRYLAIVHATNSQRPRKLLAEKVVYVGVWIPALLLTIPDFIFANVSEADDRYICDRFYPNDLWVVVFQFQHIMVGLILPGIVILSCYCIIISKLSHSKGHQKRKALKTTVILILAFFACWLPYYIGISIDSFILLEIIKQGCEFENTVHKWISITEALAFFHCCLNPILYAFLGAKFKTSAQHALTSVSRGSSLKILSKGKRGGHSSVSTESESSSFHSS

Compound: CC[C@H](C)[C@H](NC(=O)CNC(=O)[C@@H]1CCCN1C(=O)[C@H](CC(C)C)NC(=O)[C@H](CC(C)C)NC(=O)[C@H](Cc1ccccc1)NC(=O)[C@H](CC(C)C)NC(=O)[C@@H](NC(=O)[C@H](CC(C)C)NC(=O)[C@H](CC(C)C)NC(=O)[C@H](CC(C)C)NC(=O)[C@H](Cc1ccccc1)NC(=O)[C@@H](NC(=O)[C@H](CCC(N)=O)NC(=O)[C@H](CC(=O)O)NC(=O)[C@@H](N)CC(=O)O)[C@@H](C)O)[C@@H](C)CC)C(=O)N[C@H](C(=O)N[C@@H](CCSC)C(=O)N[C@H](C(=O)N[C@H](C(=O)N[C@@H](C)C(=O)N[C@@H](Cc1ccc(O)cc1)C(=O)NCC(=O)N[C@@H](CC(C)C)C(=O)O)C(C)C)C(C)C)C(C)C [CCKAR-5-3] (H-DDQTFLLLILFLLPGIVMVVAYGL-OH)
- IC50 [1]: > 50 µM

Compound: CC[C@H](C)[C@H](NC(=O)[C@H](Cc1ccccc1)NC(=O)[C@H](CC(=O)O)NC(=O)[C@@H]1CCCN1C(=O)[C@@H](NC(=O)[C@@H](NC(=O)[C@H](CC(C)C)NC(=O)[C@H](CC(C)C)NC(=O)[C@H](CC(C)C)NC(=O)[C@H](C)NC(=O)[C@@H]1CCCN1C(=O)[C@@H](NC(=O)[C@H](Cc1c[nH]c2ccccc12)NC(=O)[C@@H](NC(=O)CNC(=O)[C@@H](NC(=O)[C@H](Cc1ccc(O)cc1)NC(=O)[C@@H](N)C(C)C)C(C)C)C(C)C)[C@@H](C)CC)[C@@H](C)O)[C@@H](C)CC)C(=O)N[C@@H](Cc1ccccc1)C(=O)N[C@@H](C)C(=O)N[C@@H](CC(N)=O)C(=O)N[C@@H](CC(=O)O)C(=O)N[C@@H](CC(=O)O)C(=O)O [Peptide F-4-2] (H-VYVGVWIPALLLTIPDFIFANDD-OH)
- EC50 [2, 4]: 0.3 µM

Compound: CC[C@H](C)[C@H](NC(=O)[C@@H](NC(=O)[C@H](Cc1ccccc1)NC(=O)[C@H](CC(C)C)NC(=O)[C@@H](N)CC(C)C)C(C)C)C(=O)N[C@H](C(=O)N[C@@H](CC(C)C)C(=O)N1CCC[C@H]1C(=O)N[C@@H](Cc1ccccc1)C(=O)N[C@@H](Cc1c[nH]c2ccccc12)C(=O)N[C@@H](C)C(=O)N[C@H](C(=O)N[C@@H](CC(=O)O)C(=O)N[C@@H](C)C(=O)N[C@H](C(=O)N[C@@H](C)C(=O)N[C@@H](CC(N)=O)C(=O)N[C@@H](Cc1c[nH]c2ccccc12)C(=O)N[C@@H](Cc1ccc(O)cc1)C(=O)N[C@@H](Cc1ccccc1)C(=O)NCC(=O)N[C@@H](CC(N)=O)C(=O)N[C@@H](CC(=O)O)C(=O)N[C@@H](CC(=O)O)C(=O)O)C(C)C)C(C)C)[C@@H](C)O [Peptide F-2-2] (H-LLFVITLPFWAVDAVANWYFGNDD-OH)
- EC50 [2, 4]: 2.27 µM

Compound: CC[C@H](C)[C@H](NC(=O)[C@@H]1CCCN1C(=O)[C@H](CC(N)=O)NC(=O)[C@H](CC(C)C)NC(=O)[C@H](CS)NC(=O)[C@H](CS)NC(=O)[C@H](Cc1c[nH]cn1)NC(=O)[C@H](Cc1ccccc1)NC(=O)[C@H](Cc1ccccc1)NC(=O)[C@H](C)NC(=O)[C@H](CC(C)C)NC(=O)[C@H](C)NC(=O)[C@H](CCC(=O)O)NC(=O)[C@H](CC(=O)O)NC(=O)[C@@H](N)CC(=O)O)C(=O)N[C@@H](CC(C)C)C(=O)N[C@@H](Cc1ccc(O)cc1)C(=O)N[C@@H](C)C(=O)N[C@@H](Cc1ccccc1)C(=O)N[C@@H](CC(C)C)C(N)=O [Peptide F-7-3] (H-DDEALAFFHCCLNPILYAFL-NH2; N-terminus assumed)
- Concentration, required for inhibition of signal transduction ([3]; Table 2, SDF-1α-induced intracellular calcium release): 25 µM
- EC50 ([2]; 1RF): 3.27 µM

Compound: CC[C@H](C)[C@H](NC(=O)CNC(=O)[C@@H](NC(=O)[C@H](Cc1ccc(O)cc1)NC(=O)[C@H](Cc1ccc(O)cc1)NC(=O)[C@@H]1CCCN1C(=O)[C@H](CC(C)C)NC(=O)[C@H](Cc1c[nH]c2ccccc12)NC(=O)[C@H](CS)NC(=O)[C@H](C)NC(=O)[C@H](Cc1ccccc1)NC(=O)[C@H](Cc1ccccc1)NC(=O)[C@H](C)NC(=O)[C@H](CC(C)C)NC(=O)[C@@H](NC(=O)[C@H](CC(C)C)NC(=O)[C@@H](NC(=O)[C@@H](N)C(C)C)[C@@H](C)CC)[C@@H](C)CC)[C@@H](C)CC)C(=O)N[C@@H](CO)C(=O)N[C@H](C(=O)N[C@@H](CC(=O)O)C(=O)O)[C@@H](C)CC [Peptide F-6-1] (H-VILILAFFACWLPYYIGISID-OH)
- EC50 [2, 4]: > 50 µM

- Concentration, required for complete inhibition of [Ca ^2+ i] release [3, 5]: > 100 µM
Compound: ALAFFHCCLNPILYAFLGAK-NH2 (cysteine pairing not given here) [Peptide F-7-1]

Compound: CC[C@H](C)[C@H](N)C(=O)N[C@H](C(=O)N[C@H](C(=O)N[C@@H](CC(C)C)C(=O)N[C@@H](Cc1ccccc1)C(=O)N[C@@H](Cc1ccccc1)C(=O)N[C@@H](CC(C)C)C(=O)N[C@@H](CS)C(=O)N[C@@H](Cc1c[nH]c2ccccc12)C(=O)N[C@@H](CCSC)C(=O)N1CCC[C@H]1C(=O)N[C@H](C(=O)N[C@@H](Cc1ccccc1)C(=O)N[C@@H](CO)C(=O)N[C@@H](C)C(=O)N[C@@H](CC(N)=O)C(=O)N[C@@H](C)C(=O)N[C@@H](Cc1c[nH]c2ccccc12)C(=O)N[C@@H](CCCNC(=N)N)C(=O)N[C@@H](C)C(=O)N[C@@H](Cc1ccc(O)cc1)C(=O)N[C@@H](CC(=O)O)C(=O)N[C@H](C(=O)N[C@H](C(=O)N[C@@H](CC(=O)O)C(=O)N[C@@H](CC(=O)O)C(=O)O)C(C)C)[C@@H](C)O)[C@@H](C)CC)C(C)C)C(C)C [CCKAR-6-4] (H-IVVLFFLCWMPIFSANAWRAYDTVDD-OH)
- IC50 [1]: > 50 µM

- IC50 ([1]; fluorescent agonist rhodamine green CCK-8, read-out: IC50 in inhibiton of RG-CCK-8 binding): 20 µM
Compound: CC[C@H](C)[C@H](NC(=O)[C@H](CCC(N)=O)NC(=O)[C@H](CC(C)C)NC(=O)[C@H](C)NC(=O)[C@H](CO)NC(=O)[C@H](CCC(N)=O)NC(=O)[C@H](Cc1c[nH]c2ccccc12)NC(=O)[C@H](CCC(=O)O)NC(=O)[C@H](CC(=O)O)NC(=O)[C@@H](N)CC(=O)O)C(=O)N[C@@H](CC(C)C)C(=O)N[C@@H](CC(C)C)C(=O)N[C@@H](Cc1ccc(O)cc1)C(=O)N[C@@H](CO)C(=O)N[C@H](C(=O)N[C@H](C(=O)N[C@@H](Cc1ccccc1)C(=O)N[C@@H](CC(C)C)C(=O)N[C@@H](CC(C)C)C(=O)N[C@@H](CO)C(=O)N[C@H](C(=O)NCC(=O)N[C@@H](CC(N)=O)C(=O)N[C@H](C(=O)N[C@@H](CC(C)C)C(=O)N[C@H](C(=O)N[C@H](C(=O)N[C@H](C(=O)N[C@H](C(=O)O)C(C)C)[C@@H](C)O)[C@@H](C)CC)C(C)C)[C@@H](C)O)C(C)C)[C@@H](C)CC)[C@@H](C)CC [CCKAR-1-6] (H-DDEWQSALQILLYSIIFLLSVGNTLVITV-OH)

- Concentration, required for complete inhibition of [Ca^2+ I] release [3]: 10 µM
Compound: CC[C@H](C)[C@H](NC(=O)[C@@H](NC(=O)[C@H](Cc1ccccc1)NC(=O)[C@H](CC(C)C)NC(=O)[C@H](CC(C)C)NC(C)=O)C(C)C)C(=O)N[C@H](C(=O)N[C@@H](CC(C)C)C(=O)N1CCC[C@H]1C(=O)N[C@@H](Cc1ccccc1)C(=O)N[C@@H](Cc1c[nH]c2ccccc12)C(=O)N[C@@H](C)C(=O)N[C@H](C(=O)N[C@@H](CC(=O)O)C(=O)N[C@@H](C)C(=O)N[C@H](C(=O)N[C@@H](C)C(=O)N[C@@H](CC(N)=O)C(=O)N[C@@H](CC(=O)O)C(=O)N[C@@H](CC(=O)O)C(=O)O)C(C)C)C(C)C)[C@@H](C)O [AcF-2-5]

- Concentration, required for complete inhibition of [Ca^2+ I] release [3]: 8 µM
Compound: ACLLFVITLPFWAVDAVANWYFG NDDK(Rhod) D-OH (ACLLFVITLPFWAVDAVANWYFGNDD-{K(Rhod)-Asp-OH}; reading uncertain; also: printed as ACLLFVITLPFWAVDAVANWYFG NDDK(Rhod) D-OH) [Rhod - F-2]

- Concentration, required for complete inhibition of [Ca ^2+ i] release [3, 5]: >50 µM
Compound: HIMVGLILPGIVILSCYCIII-NH2 (cysteine pairing not given here) [Peptide F-5-1]
